In the supplement of paper PMC11821682:

Legend:
Danio rerio embryo = experiment: BMC10 any morphological effect or mortality at 120 hpf; higher = less toxic
Description: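 ZBEscreen: dechorionated Tropical 5D zebrafish embryos were exposed from 4 hpf in 96-well plates (1% DMSO, 28 °C). All compounds were first tested at 100 µM; hits were retested at 0.005-100 µM. Morphology and mortality were scored at 120 hpf and fitted as BMC10 (3-parameter log-logistic, extra risk). The embryonic photomotor response at 24 hpf and the larval photomotor response at 120 hpf are given as lowest effect levels (K-S test, p<0.01). NA = not significant up to 100 µM; NT = not tested.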

HL-60 = experiment: Cell Health Index (toxicity pseudo-probability over dose series) (index 0-1); higher = more cytotoxic / cell stress;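 note: HL-60 cells exposed 4 h at 37 °C to ten threefold dilutions spanning 5 nM to 100 µM, multiparametric flow cytometry features scored by machine-learning classification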

Row | Compound | BMC10 any morphological effect or mortality (Danio rerio embryo) | Cell Health Index (HL-60)
1 | O=c1c(O)cc([C@H]2Oc3cc(O)cc(O)c3C[C@H]2O)cc2c([C@H]3Oc4cc(O)cc(O)c4C[C@H]3O)cc(O)c(O)c12 [Theaflavin] | > 100 µM | 0.752
2 | O=C(/C=C/c1ccc(O)c(O)c1)O[C@@H](C(=O)O)[C@@H](OC(=O)/C=C/c1ccc(O)c(O)c1)C(=O)O [Chicoric acid] | > 100 µM | 0.468
3 | N[C@H]1CONC1=O [L-Cycloserine] | > 100 µM | 0.19
4 | CC(C)[C@H](N)C(=O)OCCOCn1cnc2c(=O)nc(N)[nH]c21.Cl [Valacyclovir] | > 100 µM | 0.145
5 | CC(C)Cn1cnc2c(N)nc3ccccc3c21 [Imiquimod] | > 100 µM | 0.269
6 | COc1cc2c(cc1OC)CN(CCc1ccc(NC(=O)c3cccc4c(=O)c5cccc(OC)c5[nH]c34)cc1)CC2 [Elacridar] | > 100 µM | 0.592
7 | C=C1[C@H](CO)[C@@H](O)C[C@@H]1n1cnc2c(=O)nc(N)[nH]c21.O [Entecavir] | > 100 µM | 0.178
8 | O=c1[nH]c(=O)n([C@H]2C[C@H](O)[C@@H](CO)O2)cc1C(F)(F)F [Trifluorothymidine] | > 100 µM | 0.138
9 | O=C(CCCCCCC(=O)Nc1ccccc1)NO [SAHA] | > 100 µM | 0.239
10 | COc1cc2c(cc1Cc1cccc(Cl)c1F)c(=O)c(C(=O)O)cn2[C@H](CO)C(C)C [Elvitegravir] | > 100 µM | 0.339
11 | O=C(NCc1c(F)cc(F)cc1F)c1cn2c(c(O)c1=O)C(=O)N1[C@H]3CC[C@H](C3)O[C@@H]1C2 [Bictegravir] | > 100 µM | 0.35
12 | O.Oc1cc(O)c2c(c1)O[C@H](c1ccc(O)c(O)c1)[C@@H](O)C2 (racemic) [(±)-Catechin] | > 100 µM | 0.804
13 | COC(=O)N[C@H](C(=O)N1CCC[C@H]1c1nc2cc([C@H]3CC[C@H](c4cc5nc([C@@H]6CCCN6C(=O)[C@@H](NC(=O)OC)[C@@H](C)OC)[nH]c5cc4F)N3c3cc(F)c(N4CCC(c5ccc(F)cc5)CC4)c(F)c3)c(F)cc2[nH]1)[C@@H](C)OC [Pibrentasvir] | > 100 µM | 0.268
14 | CC1(C)CC[C@]2(C(=O)O[C@@H]3O[C@H](CO)[C@@H](O)[C@H](O)[C@H]3O)CC[C@]3(C)C(=CC[C@@H]4[C@@]5(C)CC[C@H](O[C@@H]6O[C@H](C(=O)O)[C@@H](O)[C@H](O)[C@H]6O[C@@H]6O[C@H](CO)[C@@H](O)[C@H](O)[C@H]6O)C(C)(C)[C@@H]5CC[C@]43C)[C@@H]2C1 [Ginsenoside Ro] | > 100 µM | 0.229
15 | O=P([O-])(O)C(O)(Cc1cccnc1)P(=O)(O)O.[Na+] [Risedronic acid] | > 100 µM | 0.203
16 | O=c1cc(-c2ccc(O)cc2)oc2cc(O)c(O)c(O)c12 [Scutellarein] | > 100 µM | 0.815
17 | CCCCN1C[C@H](O)[C@@H](O)[C@H](O)[C@H]1CO.Cl [Miglustat] | > 100 µM | 0.184
18 | Cn1c(Cn2ccc(C(F)(F)F)c(Oc3cc(Cl)cc(C#N)c3)c2=O)n[nH]c1=O [Doravirine] | > 100 µM | 0.198
19 | CC(=O)N[C@@H](CC(C)C)C(=O)N[C@@H](CC(C)C)C(=O)N[C@H](C=O)CCCNC(=N)N.CC(=O)N[C@@H](CC(C)C)C(=O)N[C@@H](CC(C)C)C(=O)N[C@H](C=O)CCCNC(=N)N.O=S(=O)(O)O [Leupeptin] | > 100 µM | 0.184
20 | O[C@H]1[C@@]2([H])[C@](CC[C@]2([H])[C@@](CC/C=C(C)/C)(C)O[C@@H]3O[C@H](CO[C@H]4[C@H](O)[C@@H](O)[C@@H](O)CO4)[C@@H](O)[C@H](O)[C@H]3O)(C)[C@]5(C)CC[C@]6([H])[C@@](CC[C@H](O[C@]7([H])O[C@H](CO)[C@@H](O)[C@H](O)[C@H]7O[C@@]8([H])[C@H](O)[C@@H](O)[C@H](O)[C@@H](CO)O8)C6(C)C)(C)[C@@]5([H])C1 [Ginsenoside Rb2] | > 100 µM | 0.173
21 | O=C(O)C[C@H](NC(=O)OCc1ccccc1)C(=O)COC(=O)c1c(Cl)cccc1Cl [Z-Asp-CH2-DCB] | > 100 µM | 0.212
22 | CCCOCCCCCCCCCC(=O)O [10-propoxy-Decanoic acid] | > 100 µM | 0.168
23 | Nc1nc(=O)n([C@@H]2CS(=O)[C@H](CO)O2)cc1F (stereo partly drawn) [Emtricitabine S-oxide] | > 100 µM | 0.188
24 | Cc1nc(N(C)C(=O)Cc2ccc(-c3ccccn3)cc2)sc1S(N)(=O)=O [Pritelivir] | > 100 µM | 0.209
